What was measured:
[1] = test system: chloroquine-resistant P. falciparum Dd2; assay: SYBR Green I-based fluorescence assay, intraerythrocytic growth inhibition; assay type: cell-based, Plasmodium falciparum; details: for IC50 / IC90: P. falciparum Dd2, 72 h
Protocol: Ten millimolar compound stocks in DMSO were diluted by ½, ⅕, and/or 1/10 fold dilutions in ultrapure water or RPMI 1640. Varying concentrations of compound were added to culture at a 1% parasitemia and 2% hematocrit in 96-well black plates. Assay conditions maintained maximum DMSO concentrations less than 0.125% per dilution. Positive (baseline 0% growth) controls consisted of Chloroquine at 1 μM final concentration. Following 72 h incubation at 37° C. in 5% CO2, dilution plates were frozen at −80° C. for a minimum of 30 minutes. Dilution plates were allowed to thaw followed by lysis treatment and SYBR Green I incorporation. DNA quantification was determined using a fluorescence reading on a Synergy H4 multimode plate reader set at 485 nm excitation and 530 nm emission as previously reported (Roberts, Iyamu et al. 2016). EC50 was calculated from a dose response curve that was generated from a concentration range of 0-10 μM using GraphPad Prism v5.0.
Different dilutions of the compound/fraction in 1 μl of the culture medium were added to 99 μl of P. falciparum culture at a 1% parasitemia and 2% hematocrit in 96-well plates. Maximum DMSO concentration in the culture never exceeded 0.125%. Chloroquine at 1 μM was used as a positive control to determine the baseline value. Following 72 hours incubation at 37° C., the plates were frozen at −80° C. After thawing, 100 μL of lysis buffer (with SYBR Green I dye 1:10,000) was added to each well and plates were incubated at room temperature for 30 minutes prior to reading.
80 compounds were screened for their ability to inhibit the intraerythrocytic growth of chloroquine-resistant P. falciparum Dd2 using a SYBR Green I-based fluorescence assay at 1 μM.
(§1) 7 hit compounds and 17 mammalian Aurora A and B inhibitors in clinical trial were screened by SYBR Green I-based fluorescence assay to determine IC50 values in chloroquine-resistant P. falciparum Dd2 and the cytotoxicity was evaluated in 3T3 Mouse fibroblast cells using MTS cytotoxicity assay. The results of the top 2 ASINEX library compounds and 3 commercially available mammalian Aurora A and B inhibitors are shown in Table 1 below with noted structures provided in FIG. 16.

[2] = test system: 3T3 Mouse fibroblast cells; assay: MTS cytotoxicity assay; assay type: cell-based; details: for Selectivity Index: 3T3 EC50 versus Dd2 IC50; for EC50 / EC90: cytotoxicity, 3T3 mouse fibroblast cells
Protocol: The intraerythrocytic development of the malaria parasite diverges from the paradigm of eukaryotic cell cycle. Novelty of the Plasmodium cell cycle offers opportunities for development of therapeutics directed against essential components. […] Essential Plasmodium Aurora-related kinases (Arks) 1, 2, and 3 are homologous to Aurora A and B, Ser/Thr kinases involved in cell division. […] To discover potent and selective small molecule inhibitors of PfArks, screening was conducted of a library of optimized mammalian Aurora kinase inhibitors that have evolved from a general pharmacophore models for Ser/Thr kinases. In addition, we are also repurposing human Aurora kinase inhibitors to discover antimalarial lead compounds. Novel potent inhibitors (EC50<1 μM) were identified in cell-based screening using SYBR Green I fluorescence based assay. Selectivity of the hits against mammalian cells were determined using the MTS ((3-(4,5 dimethylthiazol-2-yl)-5-(3-carboxymethoxyphenyl)-2-(4-sulfophenyl)-2H-tetrazolium, inner salt) cell proliferation assay. Results from our studies to assess structure-activity-relationship, specificity of inhibition, and cellular effects of the compounds will be presented.
as §1

PfArk2 = assay: γ-P32 ATP utilization kinase assay with MBP as substrate; assay type: biochemical, Plasmodium falciparum; details: GST-tagged PfArk2 2.5 μg, MBP 2.5 μg, autoradiogram (FIG. 17B)
Protocol: GST-tagged PfArk2 was purified using affinity chromatography (FIG. 17A). Compounds were added to a standard kinase assay at indicated concentrations against PfArk-2 (2.5 μg) in a γ-P^32 ATP utilization assay with MBP (2.5 μg) as substrate (FIG. 17B). Upper panels show Coomassie Blue-stained gel and the lower panel is the corresponding autoradiogram.

[3] = P. falciparum Dd2, compound at 1 μM, 72 h

| Compound | IC50 [1] [nM] | IC90 [1] [nM] | % inhibition (1 μM) [1, 3] [%] | Selectivity Index [2] | EC50 [2] [µM] | EC90 [2] [µM] | Inhibition of PfArk2 activity (PfArk2) | IC50 ([1]; Plasmodium falciparum) [nM] | IC90 ([1]; Plasmodium falciparum) [nM] | inhibition at 1 µM ([1]; Plasmodium falciparum, P. falciparum Dd2, compound at 1 μM, 72 h) [%] |
| --- | --- | --- | --- | --- | --- | --- | --- | --- | --- | --- |
| COc1cc2c(Nc3ccc(NC(=O)c4ccccc4)cc3)ncnc2cc1OCCCN1CCOCC1 [DC-0005146, ZM-447439] | 1020 | 4320 | 75 | 3.7 | 3.78 | 11.7 | not particularly effective in inhibiting PfArk2 activity |  |  |  |
| CCn1cc(-c2ccnc3[nH]c(-c4cccc(CN(C)C)c4)cc23)c(-c2ccc(NC(=O)N(C)C)cc2)n1 [DC-0005154, GSK-1070916] |  |  |  | 13.5 | 5.97 | 15.9 | not particularly effective in inhibiting PfArk2 activity | 441 | 1720 | 87 |
| BI-847325 [DC-0005156] | 530 | 2000 | 93 | 2.5 | 1.31 | > 26.7 |  |  |  |  |
